Where two headings read alike, the source gives them in different places.
Tests used:
[1] = test system: promastigotes of L. amaz/tc3; test: Transmission electron microscopy of treated promastigotes; type: cell-based, Leishmania (Leishmania) amazonensis; details: exposed to the IC50, 48 h
Experimental: Ultrastructural alterations in Leishmania induced by flavonoids with anti-leishmanial activity were analyzed by transmission electron microscopy (TEM). […] The control was a culture of L. amaz/tc3 incubated in complete RPMI-1640 medium. After 48 h of incubation, samples of L. amaz/tc3 promastigotes from each culture were fixed in modified Karnovsky’s solution (formaldehyde [2.66%], glutaraldehyde [1.66%]) and PBS 0.1M (pH 7,4), and incubated overnight at 4°C. The fixed samples were post-fixed with a 1/1 solution of PBS/2% osmium tetroxide (OsO4), overnight. Then the material was dehydrated and included in Spurr (Pelco, USA). Ultrathin sections were cut with an ultramicrotome (MT1, Sorvall, USA), mounted on copper grids, and contrasted with uranyl acetate (PELCO, USA) and lead citrate.

[2] = test system: intracellular amastigotes of L. (L.) amazonensis; test: Microscopic assay, counting intracellular amastigotes in Raw 264.7 macrophages at the optic microscope; type: cell-based, Leishmania (Leishmania) amazonensis; details: for SI (Selectivity index): CC50 for macrophages/IC50 for Leishmania (intracellular amastigotes; Ma from fluorescence IC50); for IC50: Leishmania amazonensis, RAW264.7, Raw 264.7 macrophages, 48 h, optic microscope, read-out: Microscopic IC50 μM (SE), intracellular amastigotes
Experimental: (§1) Furthermore, the efficacy of MI was also determined against intracellular amastigotes of L. amaz/tc3 and L. amaz/wt. Raw 264.7 macrophages were plated in 96-well black plate (5 x 10^4 cells/well) and in eight well Lab-Tek tissue culture slides (6.6 x 10^4 cells/ml) (Nunc, USA). The cells were infected with promastigotes in stationary phase of L. amaz/tc3 and L. amaz/wt (1:20 ratio) at 33°C, 5% CO2. After incubation, the infected macrophages were washed to remove non-internalized parasites with PBS plus P-S. New RPMI-1640 medium with different concentrations of MI (20 to 0.62 µg/ml) was added to each well and incubated at 33°C, 5% CO2 during 48 h. The anti-leishmanial activity of MI was determined by measuring the fluorescence of intracellular amastigotes of L. amaz/tc3 in a plate reader (Tecan, Männedorf, Switzerland). The viability was calculated as mentioned above, and the IC50 was also estimated. Simultaneously, the leishmanicidal activity of MI against L. amaz/wt was determined by the microscopy test. In this case, the infected macrophages were stained with Diff Quik (Biopur S.R.L., Rosario, Argentina) and the number of intracellular amastigotes was determined in 200-500 macrophages in treated and control cultures per slide under the immersion lens microscope (100x) (Leitz Wetzlar, Germany). The infection index (II) and the % infectivity (I) were calculated by the following formulas: II = IM × A, where IM= infected macrophages (%), A= number of amastigotes per infected macrophages; and I(%)=IIT/IIc×100, where IIT= infection index in treated cultures, IIC= infection index in control cultures ([Ayres et al., 2008]). The IC50 of MI was calculated.
Then, to estimate the IC50 values of GAL, FI and MO; and to confirm the IC50 of RU, the activity was evaluated quantifying the intracellular amastigotes at the optic microscope. We followed the same methodology described for MI (microscopic assay) in “In Vitro, Fluorescent Assay Validation” section and the range of concentrations were for GAL (30 to 7.5 µM), FI (60 to 15 µM), RU and MO (200 to 50 µM), EGCG (142 a 17.7 µM).

[3] = Cytotoxicity in macrophage cell line by the MTT method (colorimetric); type: cell-based; details: mouse
Experimental: The cytotoxicity against a cell line of macrophages (Raw 264.7) of GAL, MO, FI, RU, EGCG, PE, MI and MA was determined by the MTT method. Cells (3.3 x 10^5/ml) cells were treated with different concentrations of each compound during 48 h at 37°C, 5% CO2. The controls were incubated with RPMI-1640 medium. Briefly, 50 µl of MTT (2 mg/mL) was added to each well and, after 4 h of incubation at 37°C, 5% CO2, the reaction was stopped dissolving the formazan crystals with 100 µl/well of dimethyl sulfoxide. The relative amount of formazan produced by viable macrophages was determined using a spectrophotometer at 595 nm. The percentage of viable cells was calculated according to the formula (OD treated culture−OD blank)/(OD control−OD blank) ×100 as was described previously ([Adinehbeigi et al., 2017]). The cytotoxicity concentration 50% (CC50) was calculated for each compound.

[4] = test system: promastigotes of L. amaz/tc3; test: Fluorescence assay against promastigotes of L. amaz/tc3 (tdTomato); type: cell-based, Leishmania (Leishmania) amazonensis; details: 48 h; for IC50: Leishmania; for Inhibition of parasite growth (promastigotes): doses ≤ 40 µM, fluorescence assay
Experimental: Then, we evaluated the efficacy of MI, a reference drug for leishmaniasis by the fluorescence method (L. amaz/tc3) and by the conventional method based in counting the parasite at the optic microscope (L. amaz/wt). Mid-log promastigotes of L. amaz/tc3 and L. amaz/wt were harvest and seeded (1 x 10^6/0.1 ml) with different concentrations of MI (40 to 0.6 µg/ml) in a 96-well plate at 23°C. Promastigotes cultured only in medium were the controls. Parasite viability was determined by measuring the fluorescence of L. amaz/tc3 in a plate reader (Tecan, Männedorf, Switzerland) and by counting the mobile promastigotes in a Neubauer chamber at the optic microscope (40x) (Leitz Wetzlar, Germany) at 48 h of incubation with MI. Viability was calculated with the formula: ViabilityL.amaz/tc3 =FLt/FLc×100 where, FLt is the fluorescence of treated culture, and FLc is the fluorescence of control; ViabilityL.amaz/wt=NPt/NPc×100 where, NPt is the number of promastigotes in the treated culture, and NPc is the number of promastigotes in control culture. Then, the 50% inhibitory concentration (IC50) of MI was estimated.
After fluorescence assay validation as it is described above, the method was used to evaluate in vitro the flavonoids anti-leishmanial activity. Mid-log promastigotes of L. amaz/tc3 were harvest and seeded with different concentrations of GAL (1,200 to 18.75 µM), MO, FI and RU (40 to 1.25 µM), and EGCG (300 to 18.75 µM). Positive control were promastigotes treated with PE (4 to 0.25 µM), the negative control were promastigotes cultured with medium only, and the blank was the culture medium. The parasites were incubated at 23°C for 48 h. The anti-leishmanial activity was determined by measuring the parasite fluorescence in a plate reader (Tecan, Männedorf, Switzerland). The viability was estimated as was described above for MI (fluorescent assay). The IC50 was calculated for each compound.

[5] = test system: intracellular amastigotes of L. amaz/tc3; test: Fluorescence assay in the macrophage-amastigote model (Raw 264.7 infected with L. amaz/tc3); type: cell-based, Leishmania (Leishmania) amazonensis
Experimental: as §1
The flavonoids anti-leishmanial activity was also evaluated against intracellular amastigotes. Macrophages (Raw 264.7) were plated in 96-well black plate (5 x 10^4 cell/well) and infected with promastigotes in stationary phase of L. amaz/tc3 (1:20 ratio) at 33°C, 5% CO2. After incubation, the infected macrophages were washed to remove non-internalized parasites with PBS plus P-S. New RPMI-1640 medium with different concentrations of GAL (30 to 3.75 µM), MO (300 to 37.5 µM), FI (65 to 8.12 µM), RU (300 to 37.5 µM) and EGCG (30 to 7.5 µM) was added to each well and incubated at 33°C, 5% CO2 for 48 h. Infected cells treated with Ma (136.6 to 34.1 µM) were the positive controls, and cells incubated only with RPMI-1640 were the negative control. The infected macrophages were incubated during 48 h at 33°C, 5% CO2. After treatment, the fluorescence of intracellular amastigotes of L. amaz/tc3 was measured in a plate reader (Tecan, Männedorf, Switzerland). The viability was determined as was described for MI (fluorescent assay). The selectivity index (SI) (CC50 for macrophages/IC50 for Leishmania) was calculated.

[6] = test system: promastigotes of L. (L.) amazonensis; design: method as in Escobar et al., 2002; Morais-Teixeira et al., 2011; details: published data ref Escobar et al., 2002; Morais-Teixeira et al., 2011; cited from earlier work
[7] = test system: amastigotes of L. (L.) amazonensis; design: method as in Escobar et al., 2002; Morais-Teixeira et al., 2011; details: published data ref Escobar et al., 2002; Morais-Teixeira et al., 2011; cited from earlier work
L. amaz/tc3 = test: Efficacy of Ma in BALB/c mice infected with L. amaz/tc3; type: in vivo
Experimental: Female BALB/c mice were infected in their hind right footpad with the stationary phase of promastigotes (5 x 10^6 parasites/0.05 ml) of L. amaz/tc3. Once a week the footpad swelling was measured with the digital caliper. Mice (n = 5) were treated with Ma in PBS (120 mg Sb/kg/day) starting at week 9 post-infection; the antimonial was administered by intraperitoneal injection (ip) once a day for 21 days. Control group (n = 5) received only PBS (ip). Within a week of finishing the Ma treatment, the parasite load was quantified by three methods, fluorescence (FL), optic microscope (OM) and limiting dilution assay (LD) in treated and control group. The FL method was carried out as follows, the hind right footpad was excised and weighed; then the tissue was homogenized using a glass grinder with 5 ml of complete RPMI-1640 medium and the intracellular amastigotes of L. amaz/tc3 were released. A sample (0.1 ml) of the homogenate was centrifuged to replace the medium for PBS, then it was plated in duplicates in a 96-well black culture plate with clear bottom (Nunc, USA) and the fluorescence was measured in a plate reader (Tecan, Männedorf, Switzerland). Besides, a calibration curve was used to extrapolate the sample fluorescence to the number of amastigotes. For that, a pool of amastigotes from control samples was used; amastigotes (1 x 10^6 to 1.5 x 10^4) were plated in duplicates in a 96-well black culture plate with clear bottom, and the fluorescence was measured in a plate reader (Tecan, Männedorf, Switzerland). The number of amastigotes was adjusted to the weight of the sample.
Another sample of the tissue homogenate was used to quantify the parasite loads by direct counting in a Neubauer chamber under an optical microscope (40X) (Leitz Wetzlar, Germany), and the concentration of parasites (amastigotes/ml) of each homogenate was determined ([Hill et al., 1983]). The total number of parasites was adjusted to the weight of each tissue sample.
Finally, a sample of the tissue homogenate was also used to quantify the parasite loads by the LD assay ([Lima et al., 1997]). After serial dilutions in 96-well plates, the samples were incubated at 23°C for 14 days and the number of viable promastigotes was determined from the highest dilution at which the parasite could grow.

[8] = Raw 264.7 macrophage cell line, Raw 264.7, MTT, 48 h, read-out: Colorimetric CC50 μM (SE)
[9] = read-out: IC50 against promastigotes of L. amaz/tc3
[10] = 120 mg Sb/kg/day ip, 21 days, week 13, footpad

O=C(O[C@@H]1Cc2c(O)cc(O)cc2O[C@@H]1c1cc(O)c(O)c(O)c1)c1cc(O)c(O)c(O)c1 [EGCG, (-)-epigallocatechin gallate, reference compound]
Ultrastructural alterations in promastigotes (TEM) [1]: intense cytoplasmic vacuolization | SI (Selectivity index) [2]: 1.5 | IC50 [2]: 130 µM | CC50 at 48 h [3, 8]: 194 µM | IC50 [4, 9]: 120 ± 17.6 µM

O=c1c(O)c(-c2ccc(O)c(O)c2)oc2cc(O)ccc12 [FI, fisetin]
SI (Selectivity index) [2]: < 1 | IC50 [2]: > 60 µM | CC50 at 48 h [3, 8]: 52.6 µM | Inhibition of parasite growth (promastigotes) [4]: no inhibition | Fluorescence Inhibition (%) of amastigotes ([5]; 15 µM, 48 h): 31% | inhibition at 15 µM ([5]; Leishmania, RAW264.7, 48 h, read-out: Fluorescence Inhibition (%) of amastigotes, 15 µM, 48 h): 29 to 31%

CCCCCCCCCCCCCCCCOP(=O)([O-])OCC[N+](C)(C)C [MI, Miltefosine, reference compound]
Effective dose for promastigotes [6]: 7.54 µg/mL | IC50 ([4]; read-out: IC50 against promastigotes): 5.25 ± 0.05 µg/mL | Effective dose for amastigotes [7]: 1.31 µg/mL | IC50 ([5]; Leishmania, RAW264.7, 48 h, read-out: IC50 against intracellular amastigotes): 1.65 ± 0.75 µg/mL

O=c1c(O)c(-c2ccc(O)cc2O)oc2cc(O)cc(O)c12 [MO, morin]
SI (Selectivity index) [2]: > 1.8 | IC50 [2]: 122 µM | CC50 at 48 h [3, 8]: > 230 µM | Inhibition of parasite growth (promastigotes) [4]: no inhibition | inhibition at 37.5 µM ([5]; Leishmania, RAW264.7, 48 h, read-out: Fluorescence Inhibition (%) of amastigotes, 37.5 µM, 48 h): 13.5%

N=C(N)c1ccc(OCCCCCOc2ccc(C(=N)N)cc2)cc1 [PE, Pentamidine isethionate, reference compound]
IC50 [4, 9]: 0.67 ± 0.18 µM

C[C@@H]1O[C@@H](OC[C@H]2O[C@@H](Oc3c(-c4ccc(O)c(O)c4)oc4cc(O)cc(O)c4c3=O)[C@H](O)[C@@H](O)[C@@H]2O)[C@H](O)[C@H](O)[C@H]1O [RU, rutin]
SI (Selectivity index) [2]: > 1.8 | IC50 [2]: 133 µM | CC50 at 48 h [3]: > 240 µM | Inhibition of parasite growth (promastigotes) [4]: no inhibition | IC50 ([5]; Leishmania, RAW264.7, 48 h, read-out: Fluorescence IC50 μM (SE), intracellular amastigotes): 171 µM

Meglumine antimoniate [Ma]
Inhibition of parasite burden, fluorescence method (FL) (L. amaz/tc3; [10]): 55% | Inhibition of parasite burden, limiting dilution (LD) assay (L. amaz/tc3; [10]): 54% | Inhibition of parasite burden, optic microscope (OM) (L. amaz/tc3; [10]): 75% | Footpad swelling versus control group (L. amaz/tc3; 120 mg Sb/kg/day ip, week 13, p < 0.05): significant difference | Percentage of inhibition in the parasite load, fluorescence and LD assay (L. amaz/tc3; end of treatment, both methods): 54-55% | IC50 ([5]; Raw 264.7 macrophages, 48 h, 33°C, read-out: Fluorescence IC50 μM (SE), intracellular amastigotes): 80.3 µM

From article PMC8213385, “Development of a Fluorescent Assay to Search New Drugs Using Stable tdTomato-Leishmania, and the Selection of Galangin as a Candidate With Anti-Leishmanial Activity” (Frontiers in Cellular and Infection Microbiology, 2021)
